The results in this text go back to patent US11091476B2, “Protein kinase inhibitors, preparation method and medical use thereof” (Gan & Lee Pharmaceuticals, priority 2015, dated 2021).

SMILES strings stand for the structures.

Assay [1] deals with CDK6/CyclinD3 (Homo sapiens (Human), UniProt Q00534). Briefly: CDK kinase inhibitory activity, ADP-Glo Kinase Assay, CDK6/CyclinD3. Type of assay: biochemical. On the technique in general: ADP-Glo turns the ADP formed in a reaction into a luminescent signal.
Chain of CDK6/CyclinD3 (Q00534 whole entry): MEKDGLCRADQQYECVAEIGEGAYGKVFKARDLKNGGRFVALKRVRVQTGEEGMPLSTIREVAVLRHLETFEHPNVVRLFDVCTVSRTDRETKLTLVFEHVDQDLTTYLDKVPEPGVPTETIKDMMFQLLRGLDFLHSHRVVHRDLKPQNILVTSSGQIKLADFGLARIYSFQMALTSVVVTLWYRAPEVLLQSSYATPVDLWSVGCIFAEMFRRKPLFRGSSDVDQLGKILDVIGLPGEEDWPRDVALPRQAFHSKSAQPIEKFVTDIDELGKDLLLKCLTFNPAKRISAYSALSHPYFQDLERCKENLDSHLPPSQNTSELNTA
Chain of CDK6/CyclinD3 (P30281 whole entry partner): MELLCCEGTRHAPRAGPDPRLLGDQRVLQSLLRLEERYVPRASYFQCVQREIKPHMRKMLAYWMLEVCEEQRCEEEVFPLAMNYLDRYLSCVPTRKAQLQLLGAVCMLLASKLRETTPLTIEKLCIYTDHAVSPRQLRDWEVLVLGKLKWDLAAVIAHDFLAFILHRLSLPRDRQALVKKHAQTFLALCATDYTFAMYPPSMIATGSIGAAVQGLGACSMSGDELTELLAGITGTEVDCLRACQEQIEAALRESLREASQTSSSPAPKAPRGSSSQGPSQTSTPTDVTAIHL
The target of assay [2] is CDK9/CyclinD3 (Homo sapiens (Human), UniProt P50750). As to the kind of experiment: Kinase inhibitory activity, ADP-Glo Kinase Assay, CDK9/CyclinD3. Type of assay: biochemical. An outline of the steps:
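Human CDK9/CyclinD3 ADP-Glo assay: compounds in 5-fold serial dilutions from 50 μM preincubated with kinase, then substrate plus ATP (50 μM ATP solution, stock concentration before mixing) added for 90 min at 37° C. ADP-Glo and detection reagents added, luminescence read; IC50 fitted from inhibition rates.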

In assay [3] the target is Pim-1 (Homo sapiens (Human), UniProt P11309). Briefly: Kinase inhibitory activity on Pim-1. The format is biochemical. As to the method: (§1) 1.2 Experimental Preparation • 1.2.1 Preparation of Kinase Reaction Buffer I: The 5×Reaction Buffer A (Promega; V307A-C) provided in the kit was mixed and diluted with MILLI-Q® H2O and 0.1 M DTT (dithiothreitol) to give 4× kinase buffer, and then MILLI-Q® H2O was further added to finally formulate the solution into 1× Kinase buffer.
Chain of Pim-1 (P11309 whole entry): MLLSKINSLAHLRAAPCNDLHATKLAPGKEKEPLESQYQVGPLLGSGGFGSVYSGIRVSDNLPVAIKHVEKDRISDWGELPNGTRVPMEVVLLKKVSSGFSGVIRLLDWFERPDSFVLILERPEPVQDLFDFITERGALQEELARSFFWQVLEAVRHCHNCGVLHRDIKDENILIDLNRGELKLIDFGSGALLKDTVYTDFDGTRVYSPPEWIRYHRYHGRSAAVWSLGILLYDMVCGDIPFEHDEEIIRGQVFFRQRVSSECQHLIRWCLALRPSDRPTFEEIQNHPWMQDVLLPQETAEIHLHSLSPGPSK
1 μl of 10 mM standard substance stock solution was taken and added to 9 μl of kinase reaction buffer I and mixed well; then 90 μl of kinase reaction buffer I was added and mixed well; then 100 μl of kinase reaction buffer I was added and mixed well. The final concentration was 50 μM. • b. 40 μl of kinase reaction buffer II was added into B2 to B10 of a 96-well plate, and 50 μl of the above solution was added into B1; • c. 10 μl of solution was taken from well B1, added into B2, and mixed well; then 10 μl of the resulting solution was taken and added into B3, and dilution was carried out in sequence to B9, so as to obtain control solutions that are diluted by 5-fold sequentially. • (2) Preparation of test compound solution: • a. Test compound solutions at a certain concentration were taken, respectively, diluted with kinase reaction buffer I to a final concentration of 50 μM compound solution; • b. 40 μl of kinase reaction buffer II was added into H2 to H10 of the 96-well plate; and 50 μl of the above solution was added into H1; • c. 10 μl of solution was taken from well H1, added into H2, and mixed well; then 10 μl of the resulting solution was taken and added into H3, and dilution was carried out in sequence to H9, so as to obtain test compound solutions that are diluted by 5-fold sequentially. • 1.2.4 Preparation of a mixed solution of reaction substrate and ATP: • a. Preparation of ATP solution: • 200 μl of 0.1 mM ATP solution: 2 μl of 10 mM ATP was added to 198 μl of kinase reaction buffer I; • 300 μl of 50 μM ATP solution: 150 μl of kinase reaction buffer I was added to 150 μl of the above 0.1 mM ATP solution; • b. Preparation of 300 μl of reaction substrate solution: • 150 μl 1 μg/μl reaction substrate stock solution was added to 150 μl kinase reaction buffer I, and mixed well; • c. The above a/b solutions were mixed to obtain mixed solutions, respectively.
(§2) 1.3 Experimental process: • 1.3.1: 2 μl of compound solutions of various concentrations were taken, added to a 384-well plate, and centrifuged 3 minutes; • 1.3.2: 4 μl of kinase solution was added to each well, centrifuged at 5000 rpm and 18° C. for 10 minutes, and shaken on a plate shaker for 10 minutes; • 1.3.3: 4 μl of mixed solution of substrate and ATP was added to each well, centrifuged at 5000 rpm and 18° C. for 10 minutes, and shaken on a plate shaker at 37° C. for 90 minutes; • 1.3.4: The 384-well plate was taken out, and allowed to stand to room temperature; • 1.3.5: 10 μl of ADP-GLO™ reagent was added to each well, centrifuged at 5000 rpm and 18° C. for 18 minutes, and shaken on a plate shaker at 25° C. for 40 minutes, and then the reaction was stopped; • 1.3.6: 20 μl of kinase detection reagent was added to each well, centrifuged at 5000 rpm and 18° C. for 10 minutes, and shaken on a plate shaker at 25° C. for 30 minutes; and • 1.3.7: M1000pro MICROPLATE READER was used to read […] values.
(§3) The inhibition rate of each compound at each concentration point was calculated by the formula as follows and curve fitting was performed by GraphPad Prism 5 software to obtain the IC50 value.

The target in assay [4] is CDK2/CyclinE1 (Homo sapiens (Human), UniProt P24941). As to the kind of experiment: Kinase inhibitory activity on CDK2/CyclinE1. Type of assay: biochemical. As to the method:
as §1
1 μl of 10 mM standard substance stock solution was taken and added to 9 μl of kinase reaction buffer I and mixed well; then 90 μl of kinase reaction buffer I was added and mixed well; then 100 μl of kinase reaction buffer I was added and mixed well. The final concentration was 50 μM. • b. 40 μl of kinase reaction buffer II was added into B2 to B10 of a 96-well plate, and 50 μl of the above solution was added into B1; • c. 10 μl of solution was taken from well B1, added into B2, and mixed well; then 10 μl of the resulting solution was taken and added into B3, and dilution was carried out in sequence to B9, so as to obtain control solutions that are diluted by 5-fold sequentially. • (2) Preparation of test compound solution: • a. […]
as §3

Assay [5] addresses CDK4/CyclinE1 (Homo sapiens, UniProt P11802). The conditions noted are these: read-out: CDK4/CyclinE1 IC50. As to the method:
Measurement of CDK kinase inhibitory activity of the compounds of this disclosure.
In vitro inhibitory effect of the compounds of the disclosure on CDK (CDK1, CDK4 and CDK6) kinase activity was tested by the following method.
1.1 Instrument and Kit Information
as §1
The final concentration was 50 μM. • b. 40 μl of kinase reaction buffer II was added into B2 to B10 of a 96-well plate, and 50 μl of the above solution was added into B1; • c. […]
as §2, §3

Assay [6] relates to Human glioma cell line U87 MG. Briefly: Inhibition of proliferation of the U87 MG cell line (DAPI, In Cell Analyzer). The format is cell-based. Particulars: for IC50: Homo sapiens, U-87 MG, 72 hours incubation, read-out: IC50, proliferation of U87MG Cell Line. As to the method:
as §3

Chain of CDK9/CyclinD3 (P50750 whole entry): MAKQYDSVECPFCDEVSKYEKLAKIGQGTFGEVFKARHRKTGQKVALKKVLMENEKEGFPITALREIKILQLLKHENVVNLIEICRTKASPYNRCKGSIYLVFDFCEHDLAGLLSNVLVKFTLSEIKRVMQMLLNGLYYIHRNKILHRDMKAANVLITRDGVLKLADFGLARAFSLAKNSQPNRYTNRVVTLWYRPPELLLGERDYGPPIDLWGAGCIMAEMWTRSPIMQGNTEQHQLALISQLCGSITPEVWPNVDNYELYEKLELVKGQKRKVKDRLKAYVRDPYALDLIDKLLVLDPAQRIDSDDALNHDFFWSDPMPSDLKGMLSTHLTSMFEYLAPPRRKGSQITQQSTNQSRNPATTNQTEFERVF
Chain of CDK9/CyclinD3 (O75909 whole entry partner): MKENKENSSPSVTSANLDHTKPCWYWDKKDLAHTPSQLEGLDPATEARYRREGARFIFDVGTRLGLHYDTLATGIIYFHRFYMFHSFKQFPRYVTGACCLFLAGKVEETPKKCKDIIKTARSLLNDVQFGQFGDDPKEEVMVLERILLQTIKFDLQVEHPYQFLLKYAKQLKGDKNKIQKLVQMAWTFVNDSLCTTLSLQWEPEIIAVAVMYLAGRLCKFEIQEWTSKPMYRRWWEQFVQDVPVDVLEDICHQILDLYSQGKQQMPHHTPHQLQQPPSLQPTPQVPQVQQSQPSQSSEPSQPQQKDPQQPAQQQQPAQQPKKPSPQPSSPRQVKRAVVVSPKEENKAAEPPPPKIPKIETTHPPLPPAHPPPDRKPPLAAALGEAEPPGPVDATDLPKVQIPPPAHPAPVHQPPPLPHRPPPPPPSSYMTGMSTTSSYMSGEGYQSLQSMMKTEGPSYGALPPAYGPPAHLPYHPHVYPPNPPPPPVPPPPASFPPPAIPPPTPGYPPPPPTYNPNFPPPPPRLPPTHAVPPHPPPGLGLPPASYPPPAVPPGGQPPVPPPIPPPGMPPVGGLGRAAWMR
Chain of CDK4/CyclinE1 (P11802 2-303 limits assumed): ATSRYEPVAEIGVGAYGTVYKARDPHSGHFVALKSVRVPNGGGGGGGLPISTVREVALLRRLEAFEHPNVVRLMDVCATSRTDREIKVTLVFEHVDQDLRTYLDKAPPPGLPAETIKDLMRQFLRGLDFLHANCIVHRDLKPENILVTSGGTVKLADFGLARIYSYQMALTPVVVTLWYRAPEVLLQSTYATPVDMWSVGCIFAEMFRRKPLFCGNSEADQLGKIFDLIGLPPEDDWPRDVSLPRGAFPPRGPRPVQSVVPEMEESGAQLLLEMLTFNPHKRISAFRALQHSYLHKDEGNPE

For the compound `CCN1CCC(c2ccc(Nc3ncc(F)c(-c4cc(F)c5c(c4)C4(CCCC4)C(C)=N5)n3)nc2)CC1` [Example 12, N-(5-(1-ethylpiperidin-4-yl)pyridin-2-yl)-5-fluoro-4-(7′-fluoro-2′-methylspiro [cyclopentane-1,3′-indol]-5′-yl)pyrimidine-2-amino], the IC50 was 0.00378 µM in assay [1]; 0.0572 µM in assay [2]; 0.0151 µM in assay [3]; 0.394 µM in assay [4]; 0.00446 µM in assay [5]. Moreover, the CDK1/CDK6 in assay [1] (ratio of IC50s, selectivity for CDK6 over CDK1) was 283.33. Besides, the CDK9/CDK6 in assay [1] (ratio of IC50s, selectivity for CDK6 over CDK9) came out at 18.75. Moreover, the Pim-1/CDK6 in assay [1] (ratio of IC50s, selectivity for CDK6 over Pim-1) came to 3.99.
Take `CCN1CCN(Cc2ccc(Nc3ncc(F)c(-c4cc(F)c5nc(C)n(C(C)C)c5c4)n3)nc2)CC1` [LY2835219, reference compound]: the IC50 in assay [6] came to 0.151 µM.
On to `CC1=Nc2c(F)cc(-c3nc(Nc4ccc(C5CCN(C)CC5)cn4)ncc3F)cc2C12CCCC2` [Example 17, 5-Fluoro-4-(7′-fluoro-2′-methylspiro[cyclopentane-1,3′-indol]-5′-yl)-N-(5-(1-methylpiperidin-4-yl)pyridin-2-yl)pyrimidine-2-amino], for which the IC50 stood at 0.00073 µM in assay [1]; 0.00536 µM in assay [2]; 0.0383 µM in assay [3]; 2.32 µM in assay [4]; 0.00262 µM in assay [5]; 0.0354 µM in assay [6]. In addition, the “Inhibitory effect on CDK6, in words” value in assay [1] (test conclusion) is “higher enzymatic activity for CDK6”. The “Inhibitory activity on proliferation of the U87MG cell line, in words” value in assay [6] (experimental conclusion) was “significant inhibitory activity”.
